pKi: −log10 of the molar value.

The test system of assay [1] is m4 receptors (CHO m4 cells). The experiment in a line: cAMP formation in CHO m4 cells treated with pertussis toxin. In kind it is cell-based. From the text:
Muscarinic agonists stimulate the formation of CAMP up to 10 fold in CHO m4 cells treated with pertussisi toxin and the pharmacology is consistent with the mediation by m4 receptors. Eckols K. Soc. Neurosci Abstr., 21:2040 (1995).

The target in assay [2] is muscarinic receptors (3H-oxotremorine-M binding). Description: 3H-oxotremorine-M binding study. The note with it: radioligand 3H-oxotremorine-M; read-out: inhibition constant (Ki) for binding of 3H-oxotremorine-M.

Take `CCCCCCOc1nsnc1C1=CCCN(C)C1` [xanomeline, 3-(4-hexyloxy-1,2,5-thiadiazol-3-yl)-1,2,5,6-tetrahydro-1-methylpyridine]: in assay [1], the “stimulation of formation of cAMP” value is “efficaciously and potently stimulated the formation of cAMP”. For the same molecule, the pKi in assay [2] was 8.70.
